Assay results taken from the SangsterLogP compilation.

Assay: method code SF-AS, from DOI: 10.1007/bf00500963, PMID: 600309

Compound | logP
COc1cc(Cl)c(N=C2NCCN2)c(Cl)c1 | 1.6
Brc1cc(Br)c(N=C2NCCN2)c(Br)c1 | 2.74
Cc1cc(Cl)c(NC2=NCCN2)c(Cl)c1 | 1.92
Cc1cc(Cl)cc(C)c1N=C1NCCN1 | 2.5
Fc1cccc(Cl)c1N=C1NCCN1 | 1.45
Cc1ccc(N=C2NCCN2)c(C)c1 | 1.78
Cc1cc(C)c(N=C2NCCN2)c(C)c1 | 2.32
Clc1cc(Br)cc(Cl)c1N=C1NCCN1 | 2.66
Cc1cc(Cl)cc(Cl)c1N=C1NCCN1 | 2.38
Cc1cc(C)c(N=C2NCCN2)c(Cl)c1 | 2.1
Cc1ccccc1N=C1NCCN1 | 1.28
Clc1cccc(Cl)c1N=C1NCCN1 | 1.59
O=[N+]([O-])c1cc(Cl)c(N=C2NCCN2)c(Cl)c1 | 2.1
Cc1cc(Br)cc(C)c1N=C1NCCN1 | 2.8
Clc1ccccc1N=C1NCCN1 | 1.36
Clc1cccc(NC2=NCCN2)c1Cl | 2.01
Clc1ccc(Cl)c(N=C2NCCN2)c1 | 2.04
CCc1cccc(CC)c1N=C1NCCN1 | 2.6
Clc1cccc(Br)c1N=C1NCCN1 | 1.73
